Data set [1] concerns CBP/β-Catenin. Description: SuperTOPFLASH cell-based luciferase assay (Wnt-driven Luciferase Activity in Stably Transfected Cell Line, Hek293, STF1.1). The protocol: SuperTOPFLASH Cell-based Luciferase Assay. Hek-293, STF1.1 cells are maintained in DMEM, 10% FBS, Pen-Strep supplemented with 200 μg/mL G418. On the day prior to assay, cells are split into a white, opaque 96-well plate at 10,000 cells per well in 50 μL of complete medium without G418 (for screening of Wnt-signaling inhibitors, G418 can be left out during screening process). After allowing the cells to stabilize and attach overnight, 40 μL of complete medium (without G418) containing 2.5× final concentration of compound or DMSO control is added to the cells and allowed to incubate for 1 hour at 37° C., 5% CO2 prior to adding 10 μL of a 100 mM LiCl solution prepared in complete medium (without G418). After 24 hours, 100 μL of BrightGlo (Promega, Cat. #: G7573) is added to each well and the plate is shaken for 5 minutes prior to reading on the Perkin-Elmer EnVision Plate Reader. For example, on the day prior to assay: cells are split into a white opaque 96-well plate at 10,000 cells per well in 50 μL of complete growth medium; the plate is incubated overnight at 37° C., 5% CO2 and the cells allowed to attach; the next day inhibitors to be tested are prepared in complete growth medium at 2.5× the desired final concentration (all conditions are done in duplicates), and 40 μL of the medium containing the 2.5× concentration of compound is added to each well (include 2 wells for stimulation control, 2 wells for DMSO control, and wells for the positive control ICG-001 (e.g., 2, 5, and 10 micromolar)); once all inhibitors and controls are added, incubate the plate for 1 hour at 37° C., 5% CO2 (while plate is incubating, prepare fresh 100 mM LiCl in complete growth medium); after 1 hour, the plate is removed from the incubator and 10 μL of the medium containing 100 mM LiCl are added to each well (except for the two wells of the unstimulated control, to which […] of just complete medium is added); the plate is incubated for 24 hours at 37° C., 5% CO2; after 24 hours, 100 microliters of BrightGlo (Promega, Cat. #: G7573) is added to each well, the plate is shaken for 5 minutes to ensure complete lysis, and the plate is then read on a Perkin-Elmer EnVision 96-well plate reader.

Data set [2] has as its system T memory stem cells (SCM) and central memory T-cells (CM). The settings on record: ART-suppressed SIVmac251-infected RMs; cited from earlier work.
The conditions of data set [3]: intravenous, patients with HCV cirrhosis, cited from earlier work.
The mark [4] stands for this setting: FIG. 1, compounds 0.078 μM to 10 μM, ICG-001 positive control at 0.62-20 μM.
The mark [5] stands for this setting: FIG. 2, compounds 0.625 μM to 5 μM, ICG-001 positive control at 2.5, 5 and 10 μM.
Setting [6] is: 10 and 40 mg/m^2/day for 12 weeks.

Each structure is given as a SMILES string.

`O=C1[C@H](Cc2ccc(O)cc2)N2C(=O)CN(Cc3cnn(-c4ccccc4)c3)N(C(=O)NCc3ccccc3)[C@H]2CN1Cc1cccc2ncccc12` [Compound 1, (6S,9aS)—N-benzyl-6-(4-hydroxybenzyl)-4,7-dioxo-2-((1-phenyl-1H-pyrazol-4-yl)methyl)-8-(quinolin-5-ylmethyl)octahydro-1H-pyrazino[2,1-c][1,2,4]triazine-1-carboxamide]: in data set [1] (setting [4]), the “CBP/β-Catenin inhibition activity: potency compared with ICG-001” value was “greater potency than that of ICG-001”. For the same compound, the “CBP/β-Catenin inhibition activity: potency compared between compounds 1 and 2” value in data set [1] (FIG. 1, concentrations between 0.078 μM and 10 μM) was “greater potency than that of compound 2”.

As to `O=C1[C@H](Cc2ccc(O)cc2)N2C(=O)CN(Cc3cnn(-c4ccccc4)c3Br)N(C(=O)NCc3ccccc3)[C@H]2CN1Cc1cccc2ncccc12` [Compound 2, (6S,9aS)—N-benzyl-2-((5-bromo-1-phenyl-1H-pyrazol-4-yl)methyl)-6-(4-hydroxybenzyl)-4,7-dioxo-8-(quinolin-5-ylmethyl)octahydro-1H-pyrazino[2,1-c][1,2,4]triazine-1-carboxamide], the “CBP/β-Catenin inhibition activity: potency compared with ICG-001” value in data set [1] (setting [4]) is reported as “greater potency than that of ICG-001”.

As to `O=C1[C@H](Cc2ccc(O)cc2)N2C(=O)CN(Cc3ccn(-c4ccccc4)n3)N(C(=O)NCc3ccccc3)[C@H]2CN1Cc1cccc2cccnc12` [Compound 3, (6S,9aS)—N-benzyl-6-(4-hydroxybenzyl)-4,7-dioxo-2-((1-phenyl-1H-pyrazol-3-yl)methyl)-8-(quinolin-8-ylmethyl)octahydro-1H-pyrazino[2,1-c][1,2,4]triazine-1-carboxamide], in data set [1] (setting [5]), the “CBP/β-Catenin inhibition activity: potency compared with ICG-001” value was “greater potency than that of ICG-001”.

For `O=C1[C@H](Cc2ccc(O)cc2)N2C(=O)CN(Cc3cnn(-c4ccccc4)c3)N(C(=O)NCc3ccccc3)[C@H]2CN1Cc1cccc2cccnc12` [Compound 4, (6S,9aS)—N-benzyl-6-(4-hydroxybenzyl)-4,7-dioxo-2-((1-phenyl-1H-pyrazol-4-yl)methyl)-8-(quinolin-8-ylmethyl)octahydro-1H-pyrazino[2,1-c][1,2,4]triazine-1-carboxamide], the “CBP/β-Catenin inhibition activity: potency compared with ICG-001” value in data set [1] (setting [5]) is “greater potency than that of ICG-001”. Further, the “CBP/β-Catenin inhibition activity: potency compared between compounds 3 and 4” value in data set [1] (FIG. 2, concentrations between 0.625 μM and 5 μM) is listed as “greater potency than that of compound 3”.

For the compound `C[C@H]1[C@H]2N(C(=O)CN(C)N2C(=O)NCc2ccccc2)[C@@H](Cc2ccc(OP(=O)(O)O)cc2)C(=O)N1Cc1cccc2cccnc12` [PRI-724], the “Proliferation of T memory stem cells (SCM) and central memory (CM) T-cells” value in data set [2] is listed as “decrease proliferation”. Besides, in data set [3] (10 and 40 mg/m^2/day for 12 weeks (1 week on and 1 week off)), the Safety entry is “appeared to be safe”. In addition, in data set [3] (setting [6]), the “Liver histology and Child Pugh scores” value was “improvement in liver histology and Child Pugh scores in several patients”; the “Plasma exposure of the drug” value is recorded as “dose-dependent plasma exposure”.

The values are drawn from patent US20240352020A1, “PYRAZOLE-CONTAINING CBP/CATENIN ANTAGONISTS AND USES THEREOF” (3+2 PHARMA, LLC, priority 2021, published 2024).
